The target of assay [1] is T1, human GLP-1 receptor (Homo sapiens, UniProt P43220).
T1 construct: expressed in transfected cells; host or cells: membranes prepared from BHK cells (parent line BHKTS13), clone FCW467-12A
The assay is described as follows: In vitro potency, CRE luciferase reporter gene assay in BHK cells expressing the human GLP-1 receptor. Format: cell-based. The following applies: whole cell reporter gene assay, 3 h incubation, no HSA, averages of at least two replicates. The protocol: The purpose of this example is to test the activity, or potency, of the GLP-1 derivatives in vitro. The in vitro potency is the measure of human GLP-1 receptor activation in a whole cell assay.
Semaglutide was included for comparison.
In vitro potency was determined by measuring the response of the human GLP-1 receptor in a reporter gene assay. The assay was performed in a stably transfected BHK cell line that expresses the human GLP-1 receptor and contains the DNA for the cAMP response element (CRE) coupled to a promoter and the gene for firefly luciferase (CRE luciferase). When the human GLP-1 receptor is activated it results in the production of cAMP, which in turn results in the luciferase protein being expressed. When assay incubation is completed the luciferase substrate (luciferin) is added and the enzyme converts luciferin to oxyluciferin to produce bioluminescence. The luminescence is measured as the readout for the assay.
The cells used in this assay (clone FCW467-12A/KZ10-1) were BHK cells with BHKTS13 as a parent cell line. The cells were derived from a clone (FCW467-12A) that expresses the human GLP-1 receptor and were established by further transfection with CRE luciferase to obtain the current clone.
The cells were cultured at 5% CO2 in Cell Culture Medium. They were aliquoted and stored in liquid nitrogen. Before each assay an aliquot is taken up and washed twice in PBS before being suspended at the desired concentration in the assay specific buffer. For 96-well plates the suspension was made to give a final concentration of 5×10^3 cells/well.
The following chemicals were used in the assay: Pluronic F-68 (10%) (Gibco 2404), human serum albumin (HSA) (Sigma A9511), ovalbumin (Sigma A5503), DMEM w/o phenol red (Gibco 11880-028), 1 M Hepes (Gibco 15630), Glutamax 100× (Gibco 35050) and steadylite plus (PerkinElmer 6016757).
Cell Culture Medium consisted of DMEM medium with 10% FBS (Fetal Bovine Serum; Invitrogen 16140-071), 1 mg/ml G418 (Invitrogen 15140-122), 240 nM MTX (methotrexate; Sigma M9929) and 1% pen/strep (penicillin/streptomycin; Invitrogen 15140-122).
Assay Medium consisted of DMEM w/o phenol red, 10 mM Hepes and 1× Glutamax. The Assay Buffer consisted of 2% ovalbumin and 0.2% Pluronic F-68 in Assay Medium.
1) Cell stocks were thawed in a 37° C. water bath.
2) Cells were washed three times in PBS.
3) The cells were counted and adjusted to 5×10^3 cells/50 μl (1×10^5 cells/ml) in Assay Medium. A 50 μl aliquot of cells was transferred to each well in the assay plate.
4) Stocks of the test compounds and reference compounds were diluted to a concentration of 0.2 μM in Assay Buffer. Compounds were diluted 10-fold to give the following concentrations: 2×10^−7 M, […]; 2×10^−9 M, 2×10^−10 M, 2×10^−11 M, 2×10^−12 M, 2×10^−13 M, and 2×10^−14 M. 5) A 50 μl aliquot of compound or blank was transferred from the dilution plate to the assay plate. Compounds were tested at the following final concentrations: 1×10^−7 M, 1×10^−8 M; 1×10^−9 M, 1×10^−10 M, 1×10^−11 M, 1×10^−12 M, 1×10^−13 M, and 1×10^−14 M. 6) The assay plate was incubated for 3 h in a 5% CO2 incubator at 37° C. 7) The assay plate was removed from the incubator and allowed to stand at room temperature for 15 min. 8) A 100 μl aliquot of steadylite plus reagent was added to each well of the assay plate (reagent was light sensitive). 9) Each assay plate was covered with aluminum foil to protect it from light and shaken for 30 min at room temperature. 10) Each assay plate was read in a Packard TopCount NXT instrument. Calculations and Results
The data from the TopCount instrument were transferred to GraphPad Prism software. The software performs a non-linear regression (log(agonist) vs response).
A minimum of two replicates was measured for each sample. The reported values are averages of the replicates.
A general note: In a reporter assay the amount or activity of a reporter protein is the signal.

Assay [2] concerns the target T1, human GLP-1 receptor. The assay is described as follows: GLP-1 receptor binding, competitive binding assay (125I-GLP-1, SPA) on isolated membranes.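 Note: test compounds added at a range of concentrations to membranes from cells expressing the human GLP-1 receptor, scored by displacement of labelled ligand, read with WGA SPA beads.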
Protocol: The purpose of this example is to test the receptor binding of the GLP-1 derivatives in vitro. The receptor binding is a measure of affinity of a derivative for the human GLP-1 receptor.
In this type of assay a labelled ligand (in this case ^125I-GLP-1) is bound to the receptor. Each derivative is added in a series of concentrations to isolated membranes containing the human GLP-1 receptor and displacement of the labelled ligand is monitored. The receptor binding is reported as the concentration at which half of the labelled ligand is displaced from the receptor, the IC50 value.
The following chemicals were used in the assay: Human serum albumin (HSA) (Sigma A1653), DMEM w/o phenol red (Gibco 11880-028), Pen/strep (Invitrogen 15140-122), G418 (Invitrogen 10131-027), 1 M Hepes (Gibco 15630), EDTA (Invitrogen 15575-038), PBS (Invitrogen 14190-094), fetal calf serum (Invitrogen 16140-071), EGTA, MgCl2 (Merck 1.05832.1000), Tween 20 (Amresco 0850C335), SPA particles (wheat germ agglutinin (WGA) SPA beads, Perkin Elmer RPNQ0001), [^125I]-GLP-1]-(7-36)NH2 (produced in-house), OptiPlate™-96 (Packard 6005290).
Buffer 1 consisted of 20 mM Na-HEPES plus 10 mM EDTA and pH was adjusted to 7.4. Buffer 2 consisted of 20 mM Na-HEPES plus 0.1 mM EDTA and pH was adjusted to 7.4. Assay buffer consisted of 50 mM HEPES supplemented with 5 mM EGTA, 5 mM MgCl2, 0.005% Tween 20 and pH was adjusted to 7.4. An 8% albumin stock consisted of HSA dissolved at 8% (w/v) in assay buffer. An 0.02% albumin stock consisted of HSA dissolved at 0.02% (w/v) in assay buffer.
The cells express the human GLP-1 receptor.
The cells were grown at 5% CO2 in DMEM, 10% fetal calf serum, 1% Pen/Strep (Penicillin/Streptomycin) and 1.0 mg/ml of the selection marker G418.
To make a membrane preparation the cells were grown to approximately 80% confluence. The cells were washed twice in phosphate-buffered saline and harvested. The cells were pelleted using a brief centrifugation and the cell pellet was kept on ice. The cell pellet was homogenised with ULTRA-THURRAX™ dispersing instrument for 20-30 seconds in a suitable amount of buffer 1 (e.g., 10 ml). The homogenate was centrifuged for 15 minutes. The pellet was re-suspended (homogenised) in 10 ml buffer 2 and centrifuged. This step was repeated once more. The resulting pellet was re-suspended in buffer 2 and the protein concentration was determined. The membranes were aliquoted and stored at minus 80° C.
For the receptor binding assay in the presence of low HSA (0.005%) 50 μl of the assay buffer was added to each well of an assay plate.
For the receptor binding assay in the presence of high HSA (2%) 50 μl of the 8% albumin stock was added to each well of an assay plate.
Cell membrane aliquots were thawed and diluted to their working concentration. Fifty μl were added to each well in the assay plate.
WGA SPA beads were suspended in assay buffer at 20 mg/ml. The suspension was diluted to 10 mg/ml in assay buffer just prior to addition to the assay plate. Fifty μl were added to each well in the assay plate.
The incubation was started by adding 25 μl of 480 pM solution of [^125I]-GLP-1]-(7-36)NH2 to each well of the assay plate. A 25 μl aliquot was reserved for measuring total counts/well.
The assay plate was incubated for 2 h at 30° C.
The assay plate was centrifuged for 10 min.
The assay plate was read in a Packard TopCount NXT instrument.
The data from the TopCount instrument were transferred to GraphPad Prism software. The software averaged the values for the replicates and performed a non-linear regression. IC50 values were calculated by the software and reported in nM.
Setting [3] is: High HSA IC50 (nM), high serum albumin (2.0% HSA final assay concentration).
[4] abbreviates: Low HSA IC50 (nM), low serum albumin (max. 0.001% final assay concentration).

Data on four compounds can be found in patent publication US10010614B2, “Derivatives of GLP-1 like peptides, and uses thereof” (Novo Nordisk A/S, priority 2013, dated 2018).

One may read the EC50 as the midpoint of the concentration-response curve. A low value points to higher potency in that assay. Broadly, the IC50 is the concentration that gives 50% inhibition. Higher therefore signals weaker potency.

Each structure is given as a SMILES string. Numbered stars: 1 amine (or outer) side, 2 acyl side, 3 side chain; on linkers, the order of the positions; unused ones are H or OH. Square brackets hold non-standard residues; d marks the D form. Side chains are listed from the residue outwards. Peptide text beside a SMILES is read from it. * marks the point of attachment. C20 diacid = O=C(O)CCCCCCCCCCCCCCCCCCC(=O)*; γGlu = O=C(O)[C@H](CCC(=O)[*:2])N[*:1]; Trx = NC[C@H]1CC[C@H](C(=O)O)CC1; PEG4 = NCCOCCOCCOCCOCCC(=O)O; AEEA = NCCOCCOCC(=O)O; Aib = CC(C)(N)C(=O)O

T1 sequence (P43220 24-463): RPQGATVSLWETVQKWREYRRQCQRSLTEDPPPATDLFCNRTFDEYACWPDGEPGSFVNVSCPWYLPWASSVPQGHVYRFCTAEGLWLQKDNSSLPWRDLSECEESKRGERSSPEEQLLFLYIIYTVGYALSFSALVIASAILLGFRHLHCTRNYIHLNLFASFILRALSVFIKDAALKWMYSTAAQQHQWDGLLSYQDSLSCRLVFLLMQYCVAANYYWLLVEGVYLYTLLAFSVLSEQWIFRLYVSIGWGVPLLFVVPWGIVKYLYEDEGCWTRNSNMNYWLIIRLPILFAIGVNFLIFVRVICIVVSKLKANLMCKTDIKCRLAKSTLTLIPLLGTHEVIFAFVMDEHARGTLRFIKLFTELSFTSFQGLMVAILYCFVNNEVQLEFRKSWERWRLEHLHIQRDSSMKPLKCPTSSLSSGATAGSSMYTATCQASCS

The compound `CC[C@H](C)[C@H](NC(=O)[C@H](Cc1ccccc1)NC(=O)[C@H](CCC(=O)O)NC(=O)[C@H](CCCNC(=N)N)NC(=O)[C@H](C)NC(=O)[C@H](C)NC(=O)[C@H](CCC(N)=O)NC(=O)[C@H](CCC(=O)O)NC(=O)[C@H](CCC(=O)O)NC(=O)[C@H](CC(C)C)NC(=O)[C@H](Cc1ccc(O)cc1)NC(=O)[C@H](CO)NC(=O)[C@H](CO)NC(=O)[C@@H](NC(=O)[C@H](CC(=O)O)NC(=O)[C@H](CO)NC(=O)[C@@H](NC(=O)[C@H](Cc1ccccc1)NC(=O)[C@@H](NC(=O)CNC(=O)[C@H](CCC(=O)O)NC(=O)C(C)(C)NC(=O)[C@@H](N)Cc1c[nH]cn1)[C@@H](C)O)[C@@H](C)O)C(C)C)C(=O)N[C@@H](C)C(=O)N[C@@H](Cc1c[nH]c2ccccc12)C(=O)N[C@@H](CC(C)C)C(=O)N[C@H](C(=O)N[C@@H](CCCNC(=N)N)C(=O)NCC(=O)N[C@@H](CCCNC(=N)N)C(=O)NCC(=O)N[C@@H](CCCCNC(=O)CCOCCOCCOCCOCCNC(=O)CC[C@H](NC(=O)[C@H]1CC[C@H](CNC(=O)CCCCCCCCCCCCCCCCCCC(=O)O)CC1)C(=O)O)C(=O)NCC(=O)NCC(=O)N[C@@H](CO)C(=O)N[C@@H](CCCCNC(=O)CCOCCOCCOCCOCCNC(=O)CC[C@H](NC(=O)[C@H]1CC[C@H](CNC(=O)CCCCCCCCCCCCCCCCCCC(=O)O)CC1)C(=O)O)C(=O)O)C(C)C` [Example 10, N{Alpha}([Aib8,Glu22,Arg26,Arg34]-GLP-1-(7-37)-peptidyl)-N{Epsilon}3-[2-[2-[2-[2-[[(4S)-4-carboxy-4-[[4-[(19-carboxynonadecanoylamino)methyl]cyclohexanecarbonyl]amino]butanoyl]amino]ethoxy]ethoxy]ethoxy]ethoxy]propanoylLys-Gly-Gly-Ser-N{Epsilon}3-[2-[2-[2-[2-[[(4S)-4-carboxy-4-[[4-[(19-carboxynonadecanoylamino)methyl]cyclohexanecarbonyl]amino]butanoyl]amino]ethoxy]ethoxy]ethoxy]ethoxy]propanoylLys] (H-H[Aib]EGTFTSDVSSYLEEQAAREFIAWLVRGRGK([PEG4-γGlu-Trx-C20 diacid])GGSK([PEG4-γGlu-Trx-C20 diacid])-OH) displayed an EC50 at human GLP-1 receptor [1] of 0.027 nM. Moreover, the IC50 is 123 nM at human GLP-1 receptor [2] (setting [3]) and 1.3 nM at human GLP-1 receptor [2] (setting [4]).
The matching figures for `CC[C@H](C)[C@H](NC(=O)[C@H](Cc1ccccc1)NC(=O)[C@H](CCC(=O)O)NC(=O)[C@H](CCCNC(=N)N)NC(=O)[C@H](C)NC(=O)[C@H](C)NC(=O)[C@H](CCC(N)=O)NC(=O)[C@H](CCC(=O)O)NC(=O)[C@H](CCC(=O)O)NC(=O)[C@H](CC(C)C)NC(=O)[C@H](Cc1ccc(O)cc1)NC(=O)[C@H](CO)NC(=O)[C@H](CO)NC(=O)[C@@H](NC(=O)[C@H](CC(=O)O)NC(=O)[C@H](CO)NC(=O)[C@@H](NC(=O)[C@H](Cc1ccccc1)NC(=O)[C@@H](NC(=O)CNC(=O)[C@H](CCC(=O)O)NC(=O)C(C)(C)NC(=O)[C@@H](N)Cc1c[nH]cn1)[C@@H](C)O)[C@@H](C)O)C(C)C)C(=O)N[C@@H](C)C(=O)N[C@@H](Cc1c[nH]c2ccccc12)C(=O)N[C@@H](CC(C)C)C(=O)N[C@H](C(=O)N[C@@H](CCCNC(=N)N)C(=O)NCC(=O)N[C@@H](CCCNC(=N)N)C(=O)NCC(=O)N[C@@H](CCCCNC(=O)COCCOCCNC(=O)COCCOCCNC(=O)CC[C@H](NC(=O)[C@H]1CC[C@H](CNC(=O)CCCCCCCCCCCCCCCCCCC(=O)O)CC1)C(=O)O)C(=O)N1CCC[C@H]1C(=O)N[C@@H](CCC(=O)O)C(=O)NCC(=O)N[C@@H](CCCCNC(=O)COCCOCCNC(=O)COCCOCCNC(=O)CC[C@H](NC(=O)[C@H]1CC[C@H](CNC(=O)CCCCCCCCCCCCCCCCCCC(=O)O)CC1)C(=O)O)C(=O)O)C(C)C` [Example 12] (H-H[Aib]EGTFTSDVSSYLEEQAAREFIAWLVRGRGK([AEEA-AEEA-γGlu-Trx-C20 diacid])PEGK([AEEA-AEEA-γGlu-Trx-C20 diacid])-OH): 0.024 nM, 212 nM and 1.4 nM.
In the same order, the values of `CC[C@H](C)[C@H](NC(=O)[C@H](Cc1ccccc1)NC(=O)[C@H](CCC(=O)O)NC(=O)[C@H](CCCNC(=N)N)NC(=O)[C@H](C)NC(=O)[C@H](C)NC(=O)[C@H](CCC(N)=O)NC(=O)[C@H](CCC(=O)O)NC(=O)[C@H](CCC(=O)O)NC(=O)[C@H](CC(C)C)NC(=O)[C@H](Cc1ccc(O)cc1)NC(=O)[C@H](CO)NC(=O)[C@H](CO)NC(=O)[C@@H](NC(=O)[C@H](CC(=O)O)NC(=O)[C@H](CO)NC(=O)[C@@H](NC(=O)[C@H](Cc1ccccc1)NC(=O)[C@@H](NC(=O)CNC(=O)[C@H](CCC(=O)O)NC(=O)C(C)(C)NC(=O)[C@@H](N)Cc1c[nH]cn1)[C@@H](C)O)[C@@H](C)O)C(C)C)C(=O)N[C@@H](C)C(=O)N[C@@H](Cc1c[nH]c2ccccc12)C(=O)N[C@@H](CC(C)C)C(=O)N[C@H](C(=O)N[C@@H](CCCNC(=N)N)C(=O)NCC(=O)N[C@@H](CCCNC(=N)N)C(=O)NCC(=O)N[C@@H](CCCCNC(=O)COCCOCCNC(=O)COCCOCCNC(=O)CC[C@H](NC(=O)[C@H]1CC[C@H](CNC(=O)CCCCCCCCCCCCCCCCCCC(=O)O)CC1)C(=O)O)C(=O)N[C@@H](CO)C(=O)N[C@@H](C)C(=O)N[C@@H](CCC(=O)O)C(=O)N[C@@H](CCCCNC(=O)COCCOCCNC(=O)COCCOCCNC(=O)CC[C@H](NC(=O)[C@H]1CC[C@H](CNC(=O)CCCCCCCCCCCCCCCCCCC(=O)O)CC1)C(=O)O)C(=O)O)C(C)C` [Example 13] (H-H[Aib]EGTFTSDVSSYLEEQAAREFIAWLVRGRGK([AEEA-AEEA-γGlu-Trx-C20 diacid])SAEK([AEEA-AEEA-γGlu-Trx-C20 diacid])-OH) are 0.024 nM, 160 nM and 1.4 nM.
In the same order, the values of `CC[C@H](C)[C@H](NC(=O)[C@H](Cc1ccccc1)NC(=O)[C@H](CCC(=O)O)NC(=O)[C@H](CCCNC(=N)N)NC(=O)[C@H](C)NC(=O)[C@H](C)NC(=O)[C@H](CCC(N)=O)NC(=O)[C@H](CCC(=O)O)NC(=O)[C@H](CCC(=O)O)NC(=O)[C@H](CC(C)C)NC(=O)[C@H](Cc1ccc(O)cc1)NC(=O)[C@H](CO)NC(=O)[C@H](CO)NC(=O)[C@@H](NC(=O)[C@H](CC(=O)O)NC(=O)[C@H](CO)NC(=O)[C@@H](NC(=O)[C@H](Cc1ccccc1)NC(=O)[C@@H](NC(=O)CNC(=O)[C@H](CCC(=O)O)NC(=O)C(C)(C)NC(=O)[C@@H](N)Cc1c[nH]cn1)[C@@H](C)O)[C@@H](C)O)C(C)C)C(=O)N[C@@H](C)C(=O)N[C@@H](Cc1c[nH]c2ccccc12)C(=O)N[C@@H](CC(C)C)C(=O)N[C@H](C(=O)N[C@@H](CCCNC(=N)N)C(=O)NCC(=O)N[C@@H](CCCCNC(=O)COCCOCCNC(=O)COCCOCCNC(=O)CC[C@H](NC(=O)[C@H]1CC[C@H](CNC(=O)CCCCCCCCCCCCCCCCCCC(=O)O)CC1)C(=O)O)C(=O)NCC(=O)N[C@@H](C)C(=O)N[C@@H](CCC(=O)O)C(=O)N[C@@H](CO)C(=O)N1CCC[C@H]1C(=O)N[C@@H](CCCCNC(=O)COCCOCCNC(=O)COCCOCCNC(=O)CC[C@H](NC(=O)[C@H]1CC[C@H](CNC(=O)CCCCCCCCCCCCCCCCCCC(=O)O)CC1)C(=O)O)C(=O)O)C(C)C` [Example 14] (H-H[Aib]EGTFTSDVSSYLEEQAAREFIAWLVRGK([AEEA-AEEA-γGlu-Trx-C20 diacid])GAESPK([AEEA-AEEA-γGlu-Trx-C20 diacid])-OH) are 0.022 nM, 530 nM and 1.5 nM.
